{"source": "patent US4398023A", "about": "“β-1,3-Glucanpolyol, process for preparation thereof, and utilization thereof” (Meito Sangyo Kabushiki Kaisha, priority 1979, dated 1983)", "key": {"Sarcoma 180 [1]": {"system": "Sarcoma 180", "test": "Antitumor activity test using Sarcoma 180 in ICR-JCL mice", "format": "in vivo", "settings": "intraperitoneal, once a day for 10 days, fifth week", "protocol": "(1) An antitumor activity test using Sarcoma 180 in ICR-JCL mice\n(§1) Starting 24 hours after the transplantation, the glucanpolyol of this invention was intraperitoneally administered once a day for 10 days. In the fifth week, the tumor was enucleated and its weight was compared with that in non-treated groups. The tumor inhibition ratio was calculated, and the number of tumors which completely regressed was observed.\n(§2) The tumor inhibition ratio was calculated in accordance with the following equation. [formula] wherein C is the average weight of tumor in non-treated groups (10 mice per group),\n(§3) T is the average weight of tumor in treated groups (10 mice per group)."}, "Ehrlich Carcinoma": {"system": "Ehrlich Carcinoma", "test": "Antitumor activity test using Ehrlich Carcinoma in ICR-JCL mice", "format": "in vivo", "settings": "intraperitoneal, once a day for 10 days, fifth week", "protocol": "as §1, §2, §3\n(2) An antitumor activity test using Ehrlich Carcinoma in ICR-JCL mice"}, "Meth-A": {"system": "Meth-A", "test": "Antitumor activity test using Meth-A in Balb/c mice", "format": "in vivo", "settings": "intraperitoneal, once a day for 10 days, fifth week", "protocol": "as §1, §2, §3\n(3) An antitumor activity test using Meth-A in Balb/c mice"}, "Sarcoma 180 [2]": {"system": "Sarcoma 180", "test": "Antitumor activity test using Sarcoma 180 in C3H/He mice", "format": "in vivo", "settings": "intraperitoneal, once a day for 10 days, fifth week", "protocol": "as §1, §2, §3\n(4) An antitumor activity test using Sarcoma 180 in C3H/He mice"}, "Sarcoma 180 [3]": {"system": "Sarcoma 180", "test": "Antitumor activity test using Sarcoma 180 in Balb/c mice", "format": "in vivo", "settings": "intraperitoneal, once a day for 10 days, fifth week", "protocol": "as §1, with “The ascites cells of Sarcoma 180 were inoculated peritoneally in ICR-JCL mice having a body weight of about 23 g. […] Starting” for “Starting”\nas §2, §3\n(5) An antitumor activity test using Sarcoma 180 in Balb/c mice\nSix million Sarcoma 180 cells were transplanted into the subcutaneous portion of the right inguinal part of the Balb/c mice having a body weight of about 23 g, and then, the same operation as in (1 ) above was performed."}, "Sarcoma 180 [4]": {"system": "Sarcoma 180", "test": "Antitumor activity test using Sarcoma 180 in C57 BL/6 mice", "format": "in vivo", "settings": "intraperitoneal, once a day for 10 days, fifth week", "protocol": "as §1, with “The ascites cells of Sarcoma 180 were inoculated peritoneally in ICR-JCL mice having a body weight of about 23 g. […] Starting” for “Starting”\nas §2, §3\n(6) An antitumor activity test using Sarcoma 180 in C57 BL/6 mice\nSix million Sarcoma 180 cells were transplanted into the subcutaneous portion of the right inguinal part of the C57 BL/6 mice having a body weight of about 20 g, and then the same operation as in (1) above was performed."}, "Sarcoma 180 [5]": {"system": "Sarcoma 180", "test": "Antitumor activity test using Sarcoma 180 in ddY mice", "format": "in vivo", "settings": "intraperitoneal, once a day for 10 days, fifth week", "protocol": "as §1, with “The ascites cells of Sarcoma 180 were inoculated peritoneally in ICR-JCL mice having a body weight of about 23 g. […] Starting” for “Starting”\nas §2, §3\n(7) An antitumor activity test using Sarcoma 180 in ddY mice\nSix million Sarcoma 180 cells were transplanted into the subcutaneous portion of the right inguinal part of ddY mice having a body weight of about 23 g, and then, the same operation as in (1) above was performed."}, "CCM-adenocarcinoma": {"system": "CCM-adenocarcinoma", "test": "Antitumor activity test using CCM-adenocarcinoma in ICR-JCL mice", "format": "in vivo", "settings": "intraperitoneal, once a day for 10 days, fifth week", "protocol": "as §1, with “The ascites cells of Sarcoma 180 were inoculated peritoneally in ICR-JCL mice having a body weight of about 23 g. […] Starting” for “Starting”\nas §2, §3\n(8) An antitumor activity test using CCM-adenocarcinoma in ICR-JCL mice\nSix million CCM-adenocarcinoma cells were transplanted into the subcutaneous portion of the right inguinal part of ICR-JCL mice having a body weight of about 23 g, and then the same operation as in (1) above was performed."}, "[6]": {"system": "NTF-reticulum cell sarcoma", "test": "Antitumor activity test using NTF-reticulum cell sarcoma in ICR-JCL mice", "format": "in vivo", "settings": "intraperitoneal, once a day for 10 days, fifth week", "protocol": "as §1, with “The ascites cells of Sarcoma 180 were inoculated peritoneally in ICR-JCL mice having a body weight of about 23 g. […] Starting” for “Starting”\nas §2, §3\n(9) An antitumor activity test using NTF-reticulum cell sarcoma in ICR-JCL mice\nSix million NFT-reticulum cell sarcoma cells were transplanted into the subcutaneous portion of the right inguinal part of ICR-JCL mice having a body weight of about 23 g, and then, the same operation as in (1) above was performed."}, "ICR-JCL mice": {"system": "ICR-JCL mice", "test": "Toxicity (LD50) on ICR-JCL mice", "format": "in vivo", "text": "The toxicity of the β-1,3-glucanpolyol of this invention is very low, and the LD50 values of the products obtained in Examples 1, 4 and 5, for example, on ICR-JCL mice are as shown in Table 10."}, "[7]": {"test": "Intrinsic viscosity [.eta.]", "format": "physicochemical", "settings": "25° C., aqueous solution; concentration in g/100 ml", "protocol": "The intrinsic viscosity, as used in the present invention, is [.eta.] defined by the following equation. [formula] wherein .eta.sp =(.eta.-.eta.o)/.eta.o =/.eta.o -1 in which .eta. is the viscosity (at 25° C. in aqueous solution) of the solution and .eta.o is the viscosity of the solvent; and C is the concentration in g/100 ml."}}, "data": [{"substance": "β-1,3-glucanpolyol [Example 4]", "values": [{"measurement": "Average weight of tumor", "setting": "Sarcoma 180 [1]; 1 mg/kg/day", "value": 0.92, "unit": "g"}, {"measurement": "Complete regression", "setting": "Sarcoma 180 [1]; 1 mg/kg/day", "value": "6/10"}, {"measurement": "Tumor inhibition ratio", "setting": "Sarcoma 180 [1]; 1 mg/kg/day", "value": 91.6, "unit": "%"}, {"measurement": "Average weight of tumor", "setting": "Sarcoma 180 [1]; 5 mg/kg/day", "value": 0.41, "unit": "g"}, {"measurement": "Complete regression", "setting": "Sarcoma 180 [1]; 5 mg/kg/day", "value": "8/10"}, {"measurement": "Tumor inhibition ratio", "setting": "Sarcoma 180 [1]; 5 mg/kg/day", "value": 96.3, "unit": "%"}, {"measurement": "Average weight of tumor", "setting": "Ehrlich Carcinoma; 1 mg/kg/day", "value": 1.48, "unit": "g"}, {"measurement": "Complete regression", "setting": "Ehrlich Carcinoma; 1 mg/kg/day", "value": "6/10"}, {"measurement": "Tumor inhibition ratio", "setting": "Ehrlich Carcinoma; 1 mg/kg/day", "value": 90.1, "unit": "%"}, {"measurement": "Average weight of tumor", "setting": "Ehrlich Carcinoma; 5 mg/kg/day", "value": 0.97, "unit": "g"}, {"measurement": "Complete regression", "setting": "Ehrlich Carcinoma; 5 mg/kg/day", "value": "6/10"}, {"measurement": "Tumor inhibition ratio", "setting": "Ehrlich Carcinoma; 5 mg/kg/day", "value": 93.5, "unit": "%"}, {"measurement": "Average weight of tumor", "setting": "Meth-A; 5 mg/kg/day", "value": 7.99, "unit": "g"}, {"measurement": "Complete regression", "setting": "Meth-A; 5 mg/kg/day", "value": "0/10"}, {"measurement": "Tumor inhibition ratio", "setting": "Meth-A; 5 mg/kg/day", "value": 40.2, "unit": "%"}, {"measurement": "Average weight of tumor", "setting": "Meth-A; 20 mg/kg/day", "value": 9.33, "unit": "g"}, {"measurement": "Complete regression", "setting": "Meth-A; 20 mg/kg/day", "value": "0/10"}, {"measurement": "Tumor inhibition ratio", "setting": "Meth-A; 20 mg/kg/day", "value": 30.2, "unit": "%"}, {"measurement": "Average weight of tumor", "setting": "Sarcoma 180 [2]; 1 mg/kg/day", "value": 5.62, "unit": "g"}, {"measurement": "Complete regression", "setting": "Sarcoma 180 [2]; 1 mg/kg/day", "value": "0/10"}, {"measurement": "Tumor inhibition ratio", "setting": "Sarcoma 180 [2]; 1 mg/kg/day", "value": 56.5, "unit": "%"}, {"measurement": "Average weight of tumor", "setting": "Sarcoma 180 [2]; 5 mg/kg/day", "value": 4.93, "unit": "g"}, {"measurement": "Complete regression", "setting": "Sarcoma 180 [2]; 5 mg/kg/day", "value": "1/10"}, {"measurement": "Tumor inhibition ratio", "setting": "Sarcoma 180 [2]; 5 mg/kg/day", "value": 61.8, "unit": "%"}, {"measurement": "Average weight of tumor", "setting": "Sarcoma 180 [3]; 1 mg/kg/day", "value": 0, "unit": "g"}, {"measurement": "Complete regression", "setting": "Sarcoma 180 [3]; 1 mg/kg/day", "value": "10/10"}, {"measurement": "Tumor inhibition ratio", "setting": "Sarcoma 180 [3]; 1 mg/kg/day", "value": 100, "unit": "%"}, {"measurement": "Average weight of tumor", "setting": "Sarcoma 180 [3]; 5 mg/kg/day", "value": 0, "unit": "g"}, {"measurement": "Complete regression", "setting": "Sarcoma 180 [3]; 5 mg/kg/day", "value": "10/10"}, {"measurement": "Tumor inhibition ratio", "setting": "Sarcoma 180 [3]; 5 mg/kg/day", "value": 100, "unit": "%"}, {"measurement": "Average weight of tumor", "setting": "Sarcoma 180 [4]; 1 mg/kg/day", "value": 0.13, "unit": "g"}, {"measurement": "Complete regression", "setting": "Sarcoma 180 [4]; 1 mg/kg/day", "value": "9/10"}, {"measurement": "Tumor inhibition ratio", "setting": "Sarcoma 180 [4]; 1 mg/kg/day", "value": 96.4, "unit": "%"}, {"measurement": "Average weight of tumor", "setting": "Sarcoma 180 [4]; 5 mg/kg/day", "value": 0.12, "unit": "g"}, {"measurement": "Complete regression", "setting": "Sarcoma 180 [4]; 5 mg/kg/day", "value": "9/10"}, {"measurement": "Tumor inhibition ratio", "setting": "Sarcoma 180 [4]; 5 mg/kg/day", "value": 96.6, "unit": "%"}, {"measurement": "Average weight of tumor", "setting": "Sarcoma 180 [5]; 1 mg/kg/day", "value": 0.25, "unit": "g"}, {"measurement": "Complete regression", "setting": "Sarcoma 180 [5]; 1 mg/kg/day", "value": "8/10"}, {"measurement": "Tumor inhibition ratio", "setting": "Sarcoma 180 [5]; 1 mg/kg/day", "value": 97.7, "unit": "%"}, {"measurement": "Average weight of tumor", "setting": "Sarcoma 180 [5]; 5 mg/kg/day", "value": 0.54, "unit": "g"}, {"measurement": "Complete regression", "setting": "Sarcoma 180 [5]; 5 mg/kg/day", "value": "8/10"}, {"measurement": "Tumor inhibition ratio", "setting": "Sarcoma 180 [5]; 5 mg/kg/day", "value": 95.2, "unit": "%"}, {"measurement": "Average weight of tumor", "setting": "CCM-adenocarcinoma; 1 mg/kg/day", "value": 0, "unit": "g"}, {"measurement": "Complete regression", "setting": "CCM-adenocarcinoma; 1 mg/kg/day", "value": "10/10"}, {"measurement": "Tumor inhibition ratio", "setting": "CCM-adenocarcinoma; 1 mg/kg/day", "value": 100, "unit": "%"}, {"measurement": "Average weight of tumor", "setting": "CCM-adenocarcinoma; 5 mg/kg/day", "value": 0.23, "unit": "g"}, {"measurement": "Complete regression", "setting": "CCM-adenocarcinoma; 5 mg/kg/day", "value": "8/10"}, {"measurement": "Tumor inhibition ratio", "setting": "CCM-adenocarcinoma; 5 mg/kg/day", "value": 98.1, "unit": "%"}, {"measurement": "Average weight of tumor", "setting": "[6]; 1 mg/kg/day", "value": 0.67, "unit": "g"}, {"measurement": "Complete regression", "setting": "[6]; 1 mg/kg/day", "value": "8/10"}, {"measurement": "Tumor inhibition ratio", "setting": "[6]; 1 mg/kg/day", "value": 88.3, "unit": "%"}, {"measurement": "Average weight of tumor", "setting": "[6]; 5 mg/kg/day", "value": 0.83, "unit": "g"}, {"measurement": "Complete regression", "setting": "[6]; 5 mg/kg/day", "value": "6/10"}, {"measurement": "Tumor inhibition ratio", "setting": "[6]; 5 mg/kg/day", "value": 85.6, "unit": "%"}, {"measurement": "Toxicity after ultrasonic treatment", "setting": "ICR-JCL mice; effect of ultrasonic treatment", "value": "lower toxicity"}, {"measurement": "LD50 Intraperitoneal administration", "setting": "ICR-JCL mice; intraperitoneal, ICR-JCL mice", "value": "above 5 g/kg"}, {"measurement": "LD50 Intravenous administration", "setting": "ICR-JCL mice; intravenous, ICR-JCL mice", "value": 1500, "unit": "mg/kg"}, {"measurement": "LD50 Oral administration", "setting": "ICR-JCL mice; oral, ICR-JCL mice", "value": "above 20 g/kg"}, {"measurement": "Intrinsic viscosity [.eta.]", "setting": "[7]", "value": 3.27, "unit": "dL/g"}]}, {"substance": "β-1,3-glucanpolyol [Example 7]", "values": [{"measurement": "Intrinsic viscosity [.eta.]", "setting": "[7]", "value": 8.55, "unit": "dL/g"}]}]}
